{
  "source": "patent US12409174B2",
  "about": "“Combination of zibotentan and dapagliflozin for the treatment of endothelin related diseases” (priority 2020, dated 2025)",
  "tested_on": "male Wistar rats on 4% salt diet",
  "assay": "Effect of zibotentan on Hb, Experiment 1",
  "format": "in vivo",
  "conditions": "Exp 1",
  "protocol": "In the first experiment (Experiment 1), the effect of zibotentan on haematocrit (Hct) concentration was determined when zibotentan was administered peroral (p.o) QD for 14 days. […] Animals were weighed daily prior to dosing throughout the experiment. Blood samples (20 μL) for bioanalysis were taken at 4 and 24 hr after the first dose via the tail vein from conscious animals and 24 hr after the last dose via retroorbital route from anesthetized animals. Blood samples were collected via tail vein (100 μL) for Hct concentration and haemoglobin (Hb) measurements, on day 7 and on day 14, 1-2 hr after dosing. Twenty-four hour urine was collected for the measurement of urinary glucose, urine volume and electrolytes between doses nine and ten. Animals were terminated 24 hr after the last dose. On the day of termination, animals were anesthetized using 5% isoflurane, and blood was collected via the retroorbital route (in heparin-coated microvette, Sarsted) and centrifuged at 3,500 rpm at 4° C. for 10 minutes, plasma was collected and stored at −80° C. degrees prior to analysis. Animals were then euthanized by the removal of the heart. Both the heart and the kidneys were extracted and weighed. From the right kidney, a 4 mm thick slice of tissue was collected and fixed in 4% formaldehyde for subsequent histological analysis and a piece of cortical kidney tissue and heart tissue was collected for gene expression analysis.\nFor Hct and Hb analysis, 100 μl of blood from rat's tail vein was collected and measured using CG8 cartridges analysed with an iSTAT instrument (Abbott Point of Care Inc, Abbot Park, IL, USA).\nSignificance was set at p<0.05.",
  "data": [
    {"molecule": "COc1nc(C)cnc1NS(=O)(=O)c1cccnc1-c1ccc(-c2nnco2)cc1", "note": "[Zibo, N-(3-methoxy-5-methylpyrazin-2-yl)-2-[4-(1,3,4-oxadiazol-2-yl)phenyl]pyridine-3-sulfonamide]", "values": [
      {"measurement": "Day 7 Hb", "setting": "Zibo 30 mg/kg p.o. QD", "value": 146.4, "unit": "g/L"},
      {"measurement": "Day 14 Hb", "setting": "Zibo 30 mg/kg p.o. QD", "value": 156.8, "unit": "g/L"},
      {"measurement": "Day 7 Hb", "setting": "Zibo 100 mg/kg p.o. QD", "value": 141.5, "unit": "g/L"},
      {"measurement": "Day 14 Hb", "setting": "Zibo 100 mg/kg p.o. QD", "value": 148.5, "unit": "g/L"},
      {"measurement": "Day 7 Hb", "setting": "Zibo 300 mg/kg p.o. QD", "value": 143.2, "unit": "g/L"},
      {"measurement": "Day 14 Hb", "setting": "Zibo 300 mg/kg p.o. QD", "value": 150.3, "unit": "g/L"},
      {"measurement": "Hb compared to vehicle", "setting": "zibotentan 30, 100 and 300 mg/kg, day 7", "value": "significant decrease"},
      {"measurement": "Hb compared to vehicle", "setting": "zibotentan 100 and 300 mg/kg, day 14", "value": "significant decrease"}
    ]}
  ]
}
